Data reported in patent US20230140298A1, “TOPICAL COMPOSITION COMPRISING RETINOL AND PDRN AND USE OF SAME” (DR. J SKINCLINIC, INC., priority 2021, published 2023).

Legend:
Assay type in all cases: cell-based, human
IL-8 = test: Retinol-induced IL-8 release in HaCaT cells (ELISA); details: 10 μM all-trans retinol, 48 hours
Method: (§1) Referring to FIG. 1, immortalized human keratinocytes HaCaT cells were cultured in 96-well plates and treated with 10 μM of all-trans retinol (Sigma-Aldrich, St. Louis, Mo.) and c-PDRN® obtained from (PharmaResearch, Seongnam-si, Gyeonggi-do, Korea) at the indicated concentrations. […] The levels of secreted cytokine were normalized against a standard dose-response curve. c-PDRN is a hydrolyzed DNA fragment mixture extracted from the testes of adult salmon (Oncorhynchus keta, Salmonidae) The inhibitory effects of c-PDRN were evaluated on retinol-induced secretion of MCP-1 or IL-8 in cultured human keratinocytes, HaCaT cells by enzyme-linked immunosorbent assay (ELISA) to study IL-8, MCP-1 signaling pathway. The cultured HaCaT cells were treated with 10 μM all-trans retinol prior to c-PDRN treatment at the indicated concentrations. After incubation for 48 hours, the levels of secreted IL-8 or MCP-1 were measured and normalized against a standard IL-8 or MCP-1 dose-response curve. Data were shown as the means of three individual experiments with five wells per group. All-trans retinol induced increases in IL-8 and MCP-1 secretion by 8-fold and 1.4-fold, respectively. Efficacy range was c-PDRN 10 ppm ˜100 ppm or 0.001%-0.01%.

MCP-1 = test: Retinol-induced MCP-1 release in HaCaT cells (ELISA); details: 10 μM all-trans retinol, 48 hours
Method: as §1

p38 = test: Expression and phosphorylation of p38 in HaCaT cells (Western blot); details: 10 μM all-trans retinol, 48 hours, FIG. 3
Method: Referring to FIG. 1, altered signaling pathways in the retinol-treated HaCaT cells were investigated. The HaCaT cells were harvested 48 hours after treatment of retinol and c-PDRN at the indicated concentrations, and expression and phosphorylation levels of inflammation-related signaling mediator, p38 were determined using Western blot. Antibodies against p38 or phosphorylated p38 (p-p38) were purchased from Cell Signaling Technology (Danvers, Mass.). The expression and phosphorylation levels of inflammation-related signaling mediator, p38 were evaluated after treatment with 10 μM all-trans retinol and c-PDRN at the indicated concentrations using Western blot to study p38 signaling pathway.

In the case of CC1=C(/C=C/C(C)=C/C=C/C(C)=C/CO)C(C)(C)CCC1 [All-trans retinol, all-trans retinol], the “increase in IL-8 secretion” value (IL-8) is reported as 8 fold, the “increase in MCP-1 secretion” value (MCP-1) is reported as 1.4 fold and the “phosphorylation of p38 protein induced” value (p38) is reported as 1.6 fold.
